Like-named read-outs stand apart in the source and are kept apart here.

The values that follow come from US12545688B2, “Camptothecin derivative and conjugate thereof” (SICHUAN BAILI PHARMACEUTICAL CO., LTD, priority 2019, dated 2026).

What all share (test): In vitro activity test, inhibition of target cell proliferation (MTS)
What all share (assay type): cell-based

The test system of experiment [1] is Bxpc-3. To be noted: Homo sapiens, read-out: IC50 for the inhibition of target cell proliferation in vitro, Bxpc-3. The method, then: (§1) • Cells: A431, SW620, BXPC3, Fadu from the Cell Bank of the Chinese Academy of • Sciences Cell • Culture medium DMEM: Gibco • FBS: BIOWEST
(§2) • Growth medium (with 10% FBS, Penicillin/streptomycin (100 U/mL) • Detection medium (with 1% FBS, Penicillin/streptomycin (100 U/mL)
(§3) Turn on the UV light of the biological safety cabinet 30 minutes in advance, and then turn on the ventilation for 3 minutes. The growth medium, detection medium, D-PBS and trypsin were preheated in a constant temperature water bath at 37° C., and then the surfaces were disinfected with alcohol and placed in a biological safety cabinet. Place the cells with a confluence of about 80% in a biological safety cabinet, aspirate the old medium, rinse with D-PBS, aspirate and discard, digest with trypsin for 2-3 min, add growth medium to neutralize, and centrifuge. 1200 rpm, 3 min. Aspirate the centrifugation supernatant, mix with 4 mL of detection medium, and count 100 uL (50 uL of cell fluid is taken out, 50 μL of Trypan Blue Stain is added and mixed, and counted after mixing). According to the pre-optimized cell plating density, 80 ul/well was plated in a 96-well plate. Only 80 uL detection medium was added to wells E11 and F11, and 150 uL of DPBS was added to the edge wells. 24 h after plating, add diluted antibody, 20 uL per well and set control, only add 20 uL detection medium in column 11, set 2 duplicate wells for each concentration, and mix on a cell vortex shaker after adding, 550 rpm, 3 min.
(§4) Dilution of the antibody solution: use the detection medium to prepare the test solution with an initial concentration of 5 uM and 300 uL in the first column of the V-shaped 96-well plate, and then add 240 uL of detection medium to the second to 10th columns respectively, take 60 uL from the first column of mixing and add it to the second column, mix up and down with a row gun for 10 times, discard the pipette tip, and operate the following 7 concentrations in sequence.
(§5) After 4 days, take out the MTS reagent, thaw at room temperature in the dark, vortex and mix well, add 20 μL of CellTiter One Solution Reagen MTS reagent per 100 μL of cell culture volume along the side wall of the well in the biological safety cabinet, and tap gently. After the MTS solution was evenly mixed, it was placed in a cell incubator for 2 h in the dark. After the reaction, the 96-well plate was taken out, the absorbance at OD490 nm was detected in a microplate reader, and the data was recorded, organized, analyzed and stored.

The test system of experiment [2] is A431. To be noted: Homo sapiens, A-431, 96 h, read-out: IC50 for the inhibition of target cell proliferation in vitro, A431. The method, then: as §1, §2, §3, §4, §5
Experiment [3] relates to Fadu. As to conditions: Homo sapiens, 96 h, read-out: IC50 for the inhibition of target cell proliferation in vitro, Fadu. The method, then:
as §1, §2, §3, §4, §5

Experiment [4] concerns SW620. To be noted: Homo sapiens, SW-620, 96 h, read-out: IC50 for the inhibition of target cell proliferation in vitro, SW620. The procedure:
as §1, §2, §3, §4, §5

Where [5] appears, read: 96 h, Bxpc-3 cells, MTS after 4 days.

Turning to `CC[C@@]1(O)C(=O)OCc2c1cc1n(c2=O)Cc2c-1nc1cc(F)c(C)c3c1c2[C@@H](N(C)C(=O)CO)CC3` [Compound 6], the IC50 was 13.1 nM in experiment [1] (setting [5]); 3.63 nM in experiment [2] (A431 cells, MTS after 4 days); 1.64 nM in experiment [3] (Fadu cells, MTS after 4 days); 17.7 nM in experiment [4] (SW620 cells, MTS after 4 days).
On to `CCCN(C(=O)CO)[C@H]1CCc2c(C)c(F)cc3nc4c(c1c23)Cn1c-4cc2c(c1=O)COC(=O)[C@]2(O)CC` [Compound 12], for which the IC50 in experiment [1] (BXPC-3, 96 h) is 1.6 to 8 nM; in experiment [2] it was 1.1 nM; in experiment [3] (FaDu), 0.13 nM; in experiment [4], 200 to 1000 nM.
On to `CC[C@@]1(O)C(=O)OCc2c1cc1n(c2=O)Cc2c-1nc1cc(F)c(C)c3c1c2[C@@H](N(C)C(=O)C1(O)CC1)CC3` [Compound 14], for which the IC50 in experiment [1] (BXPC-3, 96 h) is 153 nM; in experiment [2] it was 93.3 nM; in experiment [3] (FaDu) it was 53 nM; in experiment [4] it was 200 to 1000 nM.
As to `CC[C@@]1(O)C(=O)OCc2c1cc1n(c2=O)Cc2c-1nc1cc(F)c(C)c3c1c2[C@@H](N(C)C(=O)[C@H](C)O)CC3` [Compound 16], the IC50 in experiment [1] (setting [5]) was 0.00256 to 0.0128 nM; in experiment [2] (A431 cells, MTS after 4 days), 0.03 nM; in experiment [3] (Fadu cells, MTS after 4 days), 0.0014 nM; in experiment [4] (SW620 cells, MTS after 4 days), 0.064 to 0.32 nM.
